EP0380359A1, “Biocidal compositions and treatments” (Albright & Wilson Limited, priority 1989, dated 1990)

Tested on: infected cooling water
Experiment: Biocide test: bacterial counts in dosed samples of infected cooling water after 17 hours
Assay type: cell-based
Details: for bacterial counts per ml.: Table 2 (Example 6), control 10⁷
Method: Ethyl tris (hydroxymethyl) phosphonium chloride (Ethyl THPC) prepared according to the method of example 4, THPS, and a tetrakis (1 - hydroxy ethyl) phosphonium chloride (comparative example) were each dosed at four different concentrations to separate samples of an infected cooling water.
Bacterial counts per ml. of solution were estimated after 17 hours. The results are set out in Table 1 Table 1
Methyl tris (hydroxy methyl) phosphonium chloride (methyl THPC), THPS, and two other comparative examples, cyclohexyl tris (hydroxy methyl) phosphonium chloride and octyl tris (hydroxy methyl) phosphonium sulphate were each added at concentrations of 50, 200 and 1,000 ppm to separate samples of an infected cooling water.
Allyl tris (hydroxymethyl) phosphonium bromide (allyl THPB) prepared as described in Ex3 was compared with 2, 6-dichlorobenzyl tris (hydroxymethyl) phosphonium bromide and THPS in a biocide test as described in example 5. […]

[1] = Example 5, summary in words of Table 1
[2] = Table 1 (Example 5), 150 ppm, after 17 hours, control 10⁶
[3] = Table 1 (Example 5), 200 ppm, after 17 hours, control 10⁶
[4] = Table 3 (Example 7), 100 ppm, test as in example 5
[5] = Table 3 (Example 7), 150 ppm, test as in example 5
[6] = Table 3 (Example 7), 200 ppm, test as in example 5

| Structure (SMILES) | bactericidal activity [1] | Bacterial counts per ml. of solution (Table 1 (Example 5), 100 ppm, after 17 hours, control 10⁶) [per ml] | Bacterial counts per ml. of solution [2] [per ml] | Bacterial counts per ml. of solution [3] [per ml] | bacterial counts per ml. (200 ppm, after 17 hours) [per ml] | bacterial counts per ml. (1000 ppm, after 17 hours) [per ml] | Bacterial counts per ml. of solution [4] [per ml] | Bacterial counts per ml. of solution [5] [per ml] | Bacterial counts per ml. of solution [6] [per ml] | bactericidal activity (Example 7, summary in words of Table 3) |
| --- | --- | --- | --- | --- | --- | --- | --- | --- | --- | --- |
| CC[P+](CO)(CO)CO.[Cl-] [ETHYL THPC, Ethyl tris (hydroxymethyl) phosphonium chloride] | more effective than THPS at lower concentrations | 0 | 0 | 0 |  |  |  |  |  |  |
| OC[P+](CO)(CO)CO [THPS, reference compound] | effective |  | 0 | 0 | 0 | 0 | 0 | 0 | 0 |  |
| C[P+](CO)(CO)CO.[Cl-] [METHYL THPC, Methyl tris (hydroxy methyl) phosphonium chloride] |  |  |  |  | 0 | 0 |  |  |  |  |
| C=CC[P+](CO)(CO)CO.[Br-] [ALLYL THPB, Allyl tris (hydroxymethyl) phosphonium bromide] |  |  |  |  |  |  | 0 | 0 | 0 | performs at least as well as THPS |
